Test results: patent publication US20230146455A1, “TREATMENT OF INFLAMMATORY DISEASES WITH PEPTIDES AND PHARMACEUTICAL COMPOSITIONS” (Yuyu Pharma, Inc., priority 2020, published 2023)
“And” between values parts separate entries of the source, which are not always exact repeats. Equal entries are not always repeated. Where a SMILES comes first, the peptide text is derived from it. [ ]: non-standard residue; d: D form. Hyp = O=C(O)[C@@H]1C[C@@H](O)CN1

Legend:
Assay type in all cases: cell-based, human
MMP-3 = experiment: Example 8 main study Luminex, LPS hPBMCs: MMP-3; conditions: for MMP-3 Concentration: single replicates
Protocol: (§1) Human PBMCs were pretreated with YY-101, YDE-011, YDE-043 or reference compound; Xiidra® at various concentration (ranging from […] to 500 nM) for 2 h before stimulation. An equal volume of 0.5% DMSO was used as a vehicle control. Then, the cells were treated with LPS at 5 ug/ml, which was selected based on the pilot study. The supernatants from treated cells were harvested at 24 h and placed in a 96 well for Luminex cytokine & chemokine profiling using a Luminex 200 multiplex assay (Luminex; R&D system, USA).
(§2) The main study arm with triplicate wells per group in a 24-well plate: • 1. Blank • 2. PBMC: 0.5% DMSO • 3. PBMC+LPS (5 ug/ml) • 4. PBMC+YY-101 500 nM • 5. PBMC+YY-101 50 nM • 6. PBMC+YY-101 5 nM • 7. PBMC+YY-101 0.5 nM • 8. PBMC+LPS (5 ug/ml)+Xiidra® 500 nM • 9. PBMC+LPS (5 ug/ml)+Xiidra® 50 nM • 10. PBMC+LPS (5 ug/ml)+Xiidra® 5 nM • 11. PBMC+LPS (5 ug/ml)+Xiidra® 0.5 nM • 12. PBMC+LPS (5 ug/ml)+Xiidra® 0.05 nM • 13. PBMC+LPS (5 ug/ml)+Xiidra® 0.005 nM • 14. PBMC+LPS (5 ug/ml)+YY-101 500 nM • 15. PBMC+LPS (5 ug/ml)+YY-101 50 nM • 16. PBMC+LPS (5 ug/ml)+YY-101 5 nM • 17. PBMC+LPS (5 ug/ml)+YY-101 0.5 nM • 18. PBMC+LPS (5 ug/ml)+YY-101 0.05 nM • 19. PBMC+LPS (5 ug/ml)+YY-101 0.005 nM • 20. PBMC+LPS (5 ug/ml)+YDE-011 500 nM • 21. PBMC+LPS (5 ug/ml)+YDE-011 50 nM • 22. PBMC+LPS (5 ug/ml)+YDE-011 5 nM • 23. PBMC+LPS (5 ug/ml)+YDE-011 0.5 nM • 24. PBMC+LPS (5 ug/ml)+YDE-011 0.05 nM • 25. PBMC+LPS (5 ug/ml)+YDE-011 0.005 nM • 26. PBMC+LPS (5 ug/ml)+YDE-043 500 nM • 27. PBMC+LPS (5 ug/ml)+YDE-043 50 nM • 28. PBMC+LPS (5 ug/ml)+YDE-043 5 nM • 29. PBMC+LPS (5 ug/ml)+YDE-043 0.5 nM • 30. PBMC+LPS (5 ug/ml)+YDE-043 0.05 nM • 31. PBMC+LPS (5 ug/ml)+YDE-043 0.005 nM
(§3) Multiplex assay was used to measure 30 cytokines and chemokines. The 1:200 diluted cell supernatant and serial dilution of the standard were dispensed into a 96 well plate at 50 ul/well. Then, the pre-mixed cocktail of antibody-coated magnetic beads was dispensed at 50 ul/well and incubated at room temperature for 2 h in a horizontal orbital microplate shaker at 800±500 rpm. The beads were washed using a magnetic device to prevent loss. The biotin-antibody was dispensed in 50 ul of each well and incubated at room temperature for 1 h in a shaker at 800±500 rpm. After washing, streptavidin-PE was added at 50 ul/well and incubated at room temperature for 30 min in a shaker under the same conditions. Finally, after washing, wash buffer (100 ul/well) was added to the plate and incubated in a shaker for 2 min. The Luminex™ 200 setting were set according to the manufacturer's protocol. The data was calculated with a standard five-parameter logistic nonlinear regression analysis of the data (xPonent software 4.2, USA). Results were presented as concentration (ng/ml or pg/ml).

TNF-alpha = experiment: Example 8 main study Luminex, LPS hPBMCs: TNF-alpha; conditions: for TNF-alpha Concentration: individual replicates; for TNF-alpha Concentration (pg/ml), Mean: mean of replicates
Protocol: as §1, §2, §3

MMP-9 = experiment: Example 8 main study Luminex, LPS hPBMCs: MMP-9; conditions: PBMC + LPS(5 ug/ml)
Protocol: as §1, §2, §3

[1] = PBMC + LPS(5 ug/ml) + YDE043 0.005 nM
[2] = PBMC + LPS(5 ug/ml) + YDE043 0.05 nM
[3] = PBMC + LPS(5 ug/ml) + YDE043 0.5 nM
[4] = PBMC + LPS(5 ug/ml) + YDE043 5 nM
[5] = PBMC + LPS(5 ug/ml) + YDE043 50 nM
[6] = PBMC + LPS(5 ug/ml) + YDE043 500 nM
[7] = at as low as 5 μM, LPS 5 ug/mL 24 hrs
[8] = PBMC + LPS(5 ug/ml) + test article 0.005 nM
[9] = PBMC + LPS(5 ug/ml) + test article 0.05 nM
[10] = PBMC + LPS(5 ug/ml) + test article 0.5 nM
[11] = PBMC + LPS(5 ug/ml) + test article 5 nM
[12] = PBMC + LPS(5 ug/ml) + test article 50 nM
[13] = PBMC + LPS(5 ug/ml) + test article 500 nM
[14] = test article 0.005 nM, single replicates
[15] = test article 0.05 nM, single replicates
[16] = test article 0.5 nM, single replicates
[17] = test article 5 nM, single replicates
[18] = test article 50 nM, single replicates
[19] = test article 500 nM, single replicates

In the case of CC(C)C[C@H](NC(=O)[C@H](CCC(N)=O)NC(=O)CNC(=O)[C@@H]1C[C@@H](O)CN1)C(=O)NCC(=O)O [YDE-043] (H-[Hyp]GQLG-OH; N-terminus and C-terminus assumed), the “MMP-3 Concentration, Mean” value (MMP-3; [1]) is reported as 7677.2 pg/mL, the “MMP-3 Concentration” value (MMP-3; [1]) is reported as 7173.5 pg/mL and 7776.9 pg/mL and 8081.3 pg/mL and the “MMP-3 Concentration, Mean” value (MMP-3; [2]) is reported as 7136.1 pg/mL. The “MMP-3 Concentration” value (MMP-3; [2]) was 7061.2 pg/mL and 7248.5 pg/mL and 7098.6 pg/mL, the “MMP-3 Concentration, Mean” value (MMP-3; [3]) was 7173.5 pg/mL and the “MMP-3 Concentration” value (MMP-3; [3]) was 7098.6 pg/mL and 7248.5 pg/mL and 7173.5 pg/mL. For the same molecule, the “MMP-3 Concentration, Mean” value (MMP-3; [4]) was 7424.0 pg/mL, the “MMP-3 Concentration” value (MMP-3; [4]) was 7474.3 pg/ml (2×) and 7323.6 pg/ml and the “MMP-3 Concentration, Mean” value (MMP-3; [5]) was 7337.3 pg/mL. For the same molecule, the “MMP-3 Concentration” value (MMP-3; [5]) was 7701.1 pg/mL and 7398.9 pg/mL and 6911.8 pg/mL, the “MMP-3 Concentration, Mean” value (MMP-3; [6]) was 7311.7 pg/mL and the “MMP-3 Concentration” value (MMP-3; [6]) was 7098.6 pg/mL and 7663.2 pg/mL and 7173.5 pg/mL. The “LPS-induced MMP3 (in words)” value (MMP-3; [7]) was “significantly reduced”, the “TNF-alpha Concentration” value (TNF-alpha; [8]) was 2052.5 pg/mL and 1797.0 pg/mL and 2306.2 pg/mL and the “TNF-alpha Concentration (pg/ml), Mean” value (TNF-alpha; [8]) was 2051.9 pg/mL. The “TNF-alpha Concentration” value (TNF-alpha; [9]) was 1181.1 pg/mL and 1539.4 pg/mL and 1474.6 pg/mL, the “TNF-alpha Concentration (pg/ml), Mean” value (TNF-alpha; [9]) was 1398.4 pg/mL and the “TNF-alpha Concentration” value (TNF-alpha; [10]) was 1764.9 pg/ml and 1409.7 pg/ml (2×). For the same molecule, the “TNF-alpha Concentration (pg/ml), Mean” value (TNF-alpha; [10]) was 1528.1 pg/mL, the “TNF-alpha Concentration” value (TNF-alpha; [11]) was 1442.2 pg/mL and 2052.5 pg/mL and 1474.6 pg/mL and the “TNF-alpha Concentration (pg/ml), Mean” value (TNF-alpha; [11]) was 1656.4 pg/mL. The “TNF-alpha Concentration” value (TNF-alpha; [12]) was 2020.6 pg/mL and 1797.0 pg/mL and 1474.6 pg/mL, the “TNF-alpha Concentration (pg/ml), Mean” value (TNF-alpha; [12]) was 1764.1 pg/mL and the “TNF-alpha Concentration” value (TNF-alpha; [13]) was 1604.0 pg/mL and 1115.3 pg/mL and 1344.6 pg/mL. For the same molecule, the “TNF-alpha Concentration (pg/ml), Mean” value (TNF-alpha; [13]) was 1354.6 pg/mL, the “LPS-induced TNF-α (in words)” value (TNF-alpha; [7]) was “significantly reduced” and the “Concentration (pg/ml), MMP-9” value (MMP-9; test article 0.005 nM, Mean) was 5247.2 pg/mL. The “MFI (Bead name: MMP-9)” value (MMP-9; test article 0.005 nM, Mean) was 33.0, the “Concentration (pg/ml), MMP-9” value (MMP-9; [14]) was 3994.2 pg/mL and 5555.3 pg/mL and 6192.0 pg/mL and the “MFI (Bead name: MMP-9)” value (MMP-9; [14]) was 29.0 and 34.0 and 36.0. For the same molecule, the “Concentration (pg/ml), MMP-9” value (MMP-9; test article 0.05 nM, Mean) was 3943.4 pg/mL, the “MFI (Bead name: MMP-9)” value (MMP-9; test article 0.05 nM, Mean) was 28.8 and the “Concentration (pg/ml), MMP-9” value (MMP-9; [15]) was 3994.2 pg/mL and 4148.1 pg/mL and 3688.0 pg/mL. For the same molecule, the “MFI (Bead name: MMP-9)” value (MMP-9; [15]) was 29.0 and 29.5 and 28.0, the “Concentration (pg/ml), MMP-9” value (MMP-9; test article 0.5 nM, Mean) was 3536.4 pg/mL and the “MFI (Bead name: MMP-9)” value (MMP-9; test article 0.5 nM, Mean) was 27.5. The “Concentration (pg/ml), MMP-9” value (MMP-9; [16]) was 3688.0 pg/ml (2×) and 3233.2 pg/ml, the “MFI (Bead name: MMP-9)” value (MMP-9; [16]) was 28.0 (2×) and 26.5 and the “Concentration (pg/ml), MMP-9” value (MMP-9; test article 5 nM, Mean) was 3842.1 pg/mL. The “MFI (Bead name: MMP-9)” value (MMP-9; test article 5 nM, Mean) was 28.5, the “Concentration (pg/ml), MMP-9” value (MMP-9; [17]) was 4302.5 pg/mL and 3688.0 pg/mL and 3535.8 pg/mL and the “MFI (Bead name: MMP-9)” value (MMP-9; [17]) was 30.0 and 28.0 and 27.5. The “Concentration (pg/ml), MMP-9” value (MMP-9; test article 50 nM, Mean) was 3892.8 pg/mL, the “MFI (Bead name: MMP-9)” value (MMP-9; test article 50 nM, Mean) was 28.7 and the “Concentration (pg/ml), MMP-9” value (MMP-9; [18]) was 3688.0 pg/ml (2×) and 4302.5 pg/ml. For the same molecule, the “MFI (Bead name: MMP-9)” value (MMP-9; [18]) was 28.0 (2×) and 30.0, the “Concentration (pg/ml), MMP-9” value (MMP-9; test article 500 nM, Mean) was 4100.4 pg/mL and the “MFI (Bead name: MMP-9)” value (MMP-9; test article 500 nM, Mean) was 29.3. The “Concentration (pg/ml), MMP-9” value (MMP-9; [19]) was 3688.0 pg/ml (2×) and 4925.2 pg/ml and the “MFI (Bead name: MMP-9)” value (MMP-9; [19]) was 28.0 (2×) and 32.0.
